Key:
[1] = system: ALOMY; experiment: Pre-emergence herbicidal action against ALOMY; type: in vivo, Alopecurus myosuroides; settings: 80 g/ha, pre-emergence, scored visually after 3 weeks vs untreated controls (100% = plants have died, 0% = like control plants)
Outline: (§1)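 Herbicidal effect was assessed 3 weeks after treatment by visual comparison with untreated controls, 100% denoting dead plants. Aqueous WP or EC preparations had been applied at 600 to 800 l/ha with 0.2% wetting agent to the soil covering freshly sown seeds.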

[2] = system: AMARE; experiment: Pre-emergence herbicidal action against AMARE; type: in vivo, Amaranthus retroflexus
Outline: as §1

[3] = system: ECHCG; experiment: Pre-emergence herbicidal action against ECHCG; type: in vivo, Echinochloa crus-galli
Outline: as §1

[4] = system: MATIN; experiment: Pre-emergence herbicidal action against MATIN; type: in vivo, Matricaria inodora
Outline: as §1

[5] = system: SETVI; experiment: Pre-emergence herbicidal action against SETVI; type: in vivo, Setaria viridis
Outline: as §1

[6] = system: VIOTR; experiment: Pre-emergence herbicidal action against VIOTR; type: in vivo, Viola tricolor
Outline: as §1

[7] = system: DIGSA; experiment: Pre-emergence herbicidal action against DIGSA; type: in vivo, Digitaria sanguinalis
Outline: as §1

[8] = system: ECHCG; experiment: Post-emergence herbicidal action against ECHCG; type: in vivo, Echinochloa crus-galli
Outline: (§2)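 Post-emergence greenhouse test; one-leaf stage, 2–3 wk post-sowing, sandy loam. Foliar spray of WP/EC in water, 600–800 l/ha, +0.2% wetting agent. Visual % action at ~3 wk vs untreated (100% = plants dead).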

[9] = system: PHBPU; experiment: Post-emergence herbicidal action against PHBPU; type: in vivo, Pharbitis purpurea
Outline: as §2

[10] = system: VERPE; experiment: Post-emergence herbicidal action against VERPE; type: in vivo, Veronica persica; settings: 20 g/ha
Procedure: (§3) Seeds of monocotyledonous and dicotyledonous weed and crop plants are laid out in sandy loam soil in wood-fiber pots, covered with soil and cultivated in a greenhouse under good growth conditions. 2 to 3 weeks after sowing, the test plants are treated at the one-leaf stage. The compounds of the invention, formulated in the form of wettable powders (WP) or as emulsion concentrates (EC), are then sprayed onto the green parts of the plants in the form of an aqueous suspension or emulsion at a water application rate equivalent to 600 to 800 l/ha, with addition of 0.2% wetting agent. After the test plants have been left to stand in the greenhouse under optimal growth conditions for about 3 weeks, the action of the preparations is assessed visually in comparison to untreated controls (herbicidal action in percent (%): 100% activity=the plants have died, 0% activity=like control plants). […] The tables below illustrate, in an illustrative manner, the post-emergence herbicidal action of the compounds of the invention, the herbicidal activity being stated in percent.

[11] = system: VIOTR; experiment: Post-emergence herbicidal action against VIOTR; type: in vivo, Viola tricolor
Outline: as §2

[12] = system: ABUTH; experiment: Pre-emergence herbicidal action against ABUTH; type: in vivo, Abutilon theophrasti; settings: for Pre-emergence action against ABUTH (herbicidal activity): 80 g/ha, scored visually after 3 weeks vs untreated controls (100% = plants have died, 0% = like control plants); for Pre-emergence action against ABUTH (herbicidal activity in percent): dosage 20 g/ha, scored visually after 3 weeks vs untreated controls, 100% = plants have died, 0% = like control plants
Outline: as §1

[13] = system: ABUTH; experiment: Post-emergence herbicidal action against ABUTH; type: in vivo, Abutilon theophrasti; settings: visual assessment about 3 weeks after treatment vs untreated controls
Outline: as §2

[14] = system: ALOMY; experiment: Post-emergence herbicidal action against ALOMY; type: in vivo, Alopecurus myosuroides; settings: dosage 20 g/ha, visual assessment about 3 weeks after treatment vs untreated controls
Procedure: as §3

[15] = system: AMARE; experiment: Post-emergence herbicidal action against AMARE; type: in vivo, Amaranthus retroflexus; settings: 20 g/ha, visual assessment about 3 weeks after treatment, 100% = plants have died, 0% = like control plants
Outline: as §2

[16] = system: VERPE; experiment: Pre-emergence herbicidal action against VERPE; type: in vivo, Veronica persica; settings: dosage 80 g/ha
Source text: (§4) Seeds of monocotyledonous and dicotyledonous weed plants and crop plants are laid out in sandy loam soil in wood-fiber pots and covered with soil. The compounds of the invention, formulated in the form of wettable powders (WP) or as emulsion concentrates (EC), are then applied to the surface of the covering soil in the form of an aqueous suspension or emulsion at a water application rate equivalent to 600 to 800 l/ha, with addition of 0.2% wetting agent. After the treatment, the pots are placed in a greenhouse and kept under good growth conditions for the trial plants. The damage to the test plants is scored visually after a test period of 3 weeks by comparison with untreated controls (herbicidal activity in percent (%): 100% activity=the plants have died, 0% activity=like control plants). […] The tables below illustrate, in an illustrative manner, the post-emergence herbicidal action of the compounds of the invention, the herbicidal activity being stated in percent.

[17] = system: AVEFA; experiment: Pre-emergence herbicidal action against AVEFA; type: in vivo, Avena fatua; settings: 80 g/ha, pre-emergence
Source text: as §4

[18] = system: MATIN; experiment: Post-emergence herbicidal action against MATIN; type: in vivo, Matricaria inodora; settings: dosage 20 g/ha
Procedure: as §3

[19] = system: SETVI; experiment: Post-emergence herbicidal action against SETVI; type: in vivo, Setaria viridis; settings: dosage 20 g/ha
Outline: as §2

[20] = system: DIGSA; experiment: Post-emergence herbicidal action against DIGSA; type: in vivo, Digitaria sanguinalis; settings: for Post-emergence action against DIGSA: 20 g/ha
Outline: as §2

[21] = 20 g/ha, scored visually after 3 weeks vs untreated controls, 100% = plants have died, 0% = like control plants
[22] = 80 g/ha, scored visually after 3 weeks vs untreated controls (100% = plants have died, 0% = like control plants)

| Structure (SMILES) | Pre-emergence action against ALOMY (herbicidal activity) [1] [%] | Pre-emergence action against AMARE in % [2, 21] [%] | Pre-emergence action against AMARE in % [2, 22] [%] | Pre-emergence action against ECHCG in % ([3]; 80 g/ha) [%] | Pre-emergence action against MATIN in % ([4]; dosage 80 g/ha) [%] | Pre-emergence action against SETVI in % ([5]; dosage 80 g/ha) [%] | Pre-emergence action against VIOTR in % ([6]; dosage 80 g/ha) [%] | Pre-emergence action against DIGSA in % ([7]; dosage 20 g/ha) [%] | Post-emergence action against ECHCG in % ([8]; dosage 20 g/ha) [%] | Post-emergence action against PHBPU in % ([9]; dosage 20 g/ha) [%] | Post-emergence action against VERPE in % [10] [%] | Post-emergence action against VIOTR in % ([11]; 20 g/ha) [%] | Pre-emergence action against ABUTH (herbicidal activity) [12] [%] | Post-emergence action against ABUTH in % ([13]; dosage 5 g/ha) [%] | Post-emergence action against ABUTH in % ([13]; dosage 20 g/ha) [%] | Post-emergence action against ALOMY in % [14] [%] | Post-emergence action at 20 g/ha against AMARE in % [15] [%] | Post-emergence action against PHBPU in % ([9]; dosage 5 g/ha) [%] | Pre-emergence action against MATIN in % ([4]; dosage 20 g/ha) [%] | Post-emergence action against MATIN in % [18] [%] | further results |
| --- | --- | --- | --- | --- | --- | --- | --- | --- | --- | --- | --- | --- | --- | --- | --- | --- | --- | --- | --- | --- | --- |
| Cc1c(C(=O)Nc2nnnn2C)ccc(C(F)(F)F)c1C(=O)NCC1CCCO1 (stereo not shown) [Example 1-37] | 100 | 100 | 100 | 80 | 90 | 100 | 100 | 80 | 80 | 80 | 80 | 80 | – | – | – | – | – | – | – | – | Pre-emergence action against SETVI in % ([5]; dosage 20 g/ha): 90%; Pre-emergence action against DIGSA in % ([7]; dosage 80 g/ha): 100%; Post-emergence action against ECHCG in % ([8]; dosage 5 g/ha): 80% |
| COCCNC(=O)c1c(C(F)F)ccc(C(=O)Nc2nnnn2C)c1C [Example 1-347] | 80 | – | 100 | – | 90 | – | 80 | – | 90 | 90 | 90 | 100 | 100 | 80 | 90 | 80 | 100 | 90 | – | – | Post-emergence action against VIOTR in % ([11]; 5 g/ha): 80% |
| CCn1nnnc1NC(=O)c1ccc(C(F)F)c(C(=O)NCC(=O)N(C)C)c1Cl [Example 2-160] | – | 100 | 100 | – | 90 | – | 100 | – | – | – | – | – | 90 | – | 90 | 80 | 100 | – | – | – | Pre-emergence action against VERPE in % [16]: 80% |
| CCn1nnnc1NC(=O)c1ccc(C(F)(F)F)c(C(=O)NCC(F)(F)F)c1Br [Example 2-211] | 90 | 100 | 100 | 90 | 100 | 100 | 80 | – | 80 | 80 | – | – | 100 | 80 | 80 | 80 | 90 | 80 | 90 | 80 | Pre-emergence action against ABUTH (herbicidal activity in percent) [12]: 100%; Pre-emergence action against AVEFA in % [17]: 80%; Post-emergence action against SETVI in % [19]: 90%; Post-emergence action against DIGSA [20]: 80% |
| CCNC(=O)c1c(OC)ccc(C(=O)Nc2nnnn2CC)c1Cl [Example 2-353] | 90 | 100 | 100 | – | 100 | – | 100 | – | – | 80 | 100 | 80 | 100 | 90 | 100 | – | 100 | 80 | 90 | 80 | Pre-emergence action against VIOTR in % ([6]; dosage 20 g/ha): 90% |
| Cc1nnc(NC(=O)c2ccc(C(F)(F)F)c(C(=O)NC(C)C3CC3)c2Cl)o1 (stereo not shown) [Example 6-254] | 90 | 100 | 100 | 100 | 100 | 80 | 90 | 90 | 90 | 80 | 80 | – | 100 | – | 80 | – | 100 | – | 80 | 80 | Pre-emergence action against ABUTH (herbicidal activity in percent) [12]: 100%; Pre-emergence action against AVEFA in % [17]: 90%; Pre-emergence action against ECHCG in % ([3]; 20 g/ha): 90%; Pre-emergence action against VERPE in % [16]: 100%; Pre-emergence action against DIGSA in % ([7]; dosage 80 g/ha): 100%; Post-emergence action against SETVI in % [19]: 80%; Post-emergence action against DIGSA in % ([20]; 5 g/ha): 80%; Post-emergence action against DIGSA [20]: 90% |

Reference: patent publication US12655116B2, “Substituted isophthalic acid diamides” (Bayer Aktiengesellschaft, priority 2020, dated 2026)
